In paper PMC9067978, “Design, synthesis, and molecular docking studies of novel pomalidomide-based PROTACs as potential anti-cancer agents targeting EGFR^WT and EGFR^T790M” (Journal of Enzyme Inhibition and Medicinal Chemistry, 2022):

Key:
caspase-3 = assay: Caspase-3 determination (ELISA) in HepG-2 cells; format: cell-based, human; settings: HepG-2, 3.02 µM, 24 hours
Description: Caspase-3 activation was measured using a Caspase-3 ELISA Kit (KHO1091).

HepG-2 [1] = assay: MTT anti-proliferative assay, HepG-2
Description: (§5) The anti-proliferative activity was quantified in the following way. At a density of 3–8 × 10^3 cells per well, human cancer cell lines were introduced to 96-well plates. The wells were then incubated at 37 °C for 12 hours in 5% CO2 incubator. To determine the DMSO content, the culture media was swapped with 0.1 ml of fresh medium containing graded amounts of the test compounds for each well. Incubation time for the wells was two days. The cells were then cultured in 100 µl MTT solution (5 µg ml^−1) for another 4 hours in each well.
(§6) The absorbance of each well was measured at 490 nm with an automated ELISA reader system (TECAN, CHE) after MTT-formazan crystals were dissolved in 100 µl of DMSO. The IC50 values were calculated using nonlinear regression fitting models (Graph Pad, Prism Version 5). The results were expressed as means ± SD and were based on the average of three separate, duplicate trials.

MCF-7 [2] = assay: Annexin V/propidium iodide apoptosis assay, MCF-7; format: cell-based, human; settings: 3.92 µM, 24 hours
Description: (§1) The double staining Annexin V/propidium iodide technique was performed to assess the mechanism of cell death and apoptosis-inducing activity.[46] […] As shown in (Figure 7 (A and B).
(§2) The negative control was chosen to be DMSO. The cells were then collected and washed twice in PBS. The cells were separated using centrifugation. An apoptosis detection kit (BD Biosciences, SanJose, CA) was used in this investigation. Following the manufacturer’s instructions, the cells were dyed with Annexin V-FITC and propidium iodide (PI) in the binding buffer for 20 minutes at 37 °C in the darkness. A flow cytometer was used to assess the binding of Annexin V-FITC and PI. The frequencies in all quadrants were investigated using the Flowjo program.[53]

HepG-2 [3] = assay: Annexin V/propidium iodide apoptosis assay, HepG-2; format: cell-based, human; settings: 3.02 µM, 24 hours
Description: as §1, §2

HCT-116 [4] = assay: DNA-flow cytometric cell cycle analysis, HCT-116; format: cell-based, human; settings: 3.32 µM, 24 hours
Description: (§3) Then, the influence of compound 16 on the cell cycle profile was then investigated.
(§4) The cells that had been tested were then trypsinized and washed in sterilised phosphate buffer saline (PBS). The collected cells were fixed with cold ethanol (100%, 1.5 ml). According to the manufacturer’s instructions, a Cycle TESTTM PLUS DNA Reagent Kit was used to dye the cells (BD Biosciences, San Jose, CA). A flow cytometer was used to assess cell-cycle distribution.[52]

EGFR^T790M = molecular target: T1, EGFR^T790M (Homo sapiens, UniProt P00533, T790M); assay: EGFR^T790M kinase inhibitory assay (HTRF); format: biochemical; settings: ATP 1.65 µM, mean ± S.D of three experiments, read-out: EGFR^790M IC50
T1 construct: purchased Sigma
T1 sequence (P00533 25-1210 T790M): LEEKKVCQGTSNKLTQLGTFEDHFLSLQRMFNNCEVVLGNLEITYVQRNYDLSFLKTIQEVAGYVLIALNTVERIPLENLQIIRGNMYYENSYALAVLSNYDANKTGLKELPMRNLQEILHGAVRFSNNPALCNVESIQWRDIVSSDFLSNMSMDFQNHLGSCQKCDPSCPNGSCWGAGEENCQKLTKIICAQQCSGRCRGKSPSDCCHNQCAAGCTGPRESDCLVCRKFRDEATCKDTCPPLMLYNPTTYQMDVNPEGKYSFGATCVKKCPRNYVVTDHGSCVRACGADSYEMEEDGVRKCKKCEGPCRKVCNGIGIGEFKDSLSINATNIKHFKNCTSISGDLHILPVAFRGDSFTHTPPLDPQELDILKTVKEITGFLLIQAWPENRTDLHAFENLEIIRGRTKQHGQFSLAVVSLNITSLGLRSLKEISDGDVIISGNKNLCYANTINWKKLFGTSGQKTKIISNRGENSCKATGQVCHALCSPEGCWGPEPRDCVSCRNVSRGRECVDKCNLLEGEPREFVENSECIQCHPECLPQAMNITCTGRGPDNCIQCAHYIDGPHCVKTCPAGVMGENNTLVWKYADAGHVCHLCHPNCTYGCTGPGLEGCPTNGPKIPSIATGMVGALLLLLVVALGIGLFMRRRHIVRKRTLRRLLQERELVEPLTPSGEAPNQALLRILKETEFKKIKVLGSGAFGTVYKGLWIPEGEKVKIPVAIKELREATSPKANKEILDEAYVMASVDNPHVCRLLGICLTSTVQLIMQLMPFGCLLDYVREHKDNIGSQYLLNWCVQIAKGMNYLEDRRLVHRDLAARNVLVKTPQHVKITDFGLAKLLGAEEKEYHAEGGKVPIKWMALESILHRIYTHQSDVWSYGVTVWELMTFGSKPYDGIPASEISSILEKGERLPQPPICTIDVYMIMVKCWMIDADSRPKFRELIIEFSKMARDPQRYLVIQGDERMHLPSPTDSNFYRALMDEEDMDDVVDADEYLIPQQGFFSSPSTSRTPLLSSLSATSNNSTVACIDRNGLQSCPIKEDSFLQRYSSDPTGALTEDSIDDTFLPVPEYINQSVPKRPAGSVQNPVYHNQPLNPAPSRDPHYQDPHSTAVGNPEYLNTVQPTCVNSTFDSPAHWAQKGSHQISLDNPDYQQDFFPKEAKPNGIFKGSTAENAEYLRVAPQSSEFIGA
Description: This test used HTRF[44] assay with EGFR^WT and EGFR^T790M (Sigma). For the first 5 minutes, the evaluated compounds were incubated with EGFR^WT and/or EGFR^T790M and their substrates in the enzymatic buffer. […] The assay was performed at 37 °C for 30 minutes. The addition of EDTA-containing detection reagents halted the process. After one hour detection period, GraphPad Prism 5.0 was used to calculate the IC50 values. For each concentration, three separate trials were carried out.

MCF-7 [5] = assay: MTT anti-proliferative assay, MCF-7
Description: as §5, §6

HCT-116 [6] = assay: MTT anti-proliferative assay, HCT-116
Description: as §5, §6

HepG-2 [7] = assay: DNA-flow cytometric cell cycle analysis, HepG-2; format: cell-based, human; settings: 3.02 µM, 24 hours
Description: as §3, §4

A549 = assay: MTT anti-proliferative assay, A549
Description: as §5, §6

[8] = ratio of cytotoxic IC50 to erlotinib

Cn1c(=O)c(C(=O)NNCCOCCOCC(=O)Nc2cccc3c2C(=O)N(C2CCC(=O)NC2=O)C3=O)nc2ccccc21 (centres unmarked) [Compound 16, N-(2-(2,6-dioxopiperidin-3-yl)-1,3-dioxoisoindolin-4-yl)-2-(2-(2-(2-(4-methyl-3-oxo-3,4-dihydroquinoxaline-2-carbonyl) hydrazinyl)ethoxy)ethoxy) acetamide]
increase of caspase-3 level vs control cells (caspase-3): 6.31 fold
IC50 (HepG-2 [1]; Homo sapiens, HepG2, read-out: IC50 HepG-2): 3.02 ± 0.12 µM
folds more active than erlotinib, HepG-2 (HepG-2 [1]; [8]): 4.34 folds
cellular apoptosis, early and late, times vs control, MCF-7 (MCF-7 [2]): ~9 times
early apoptosis ratio, MCF-7 (MCF-7 [2]): 4.18%
late apoptosis ratio, MCF-7 (MCF-7 [2]): 5.07%
cellular apoptosis, early and late, folds vs control, HepG-2 (HepG-2 [3]): ~13 folds
early apoptosis ratio, HepG-2 (HepG-2 [3]): 7.55%
late apoptosis ratio, HepG-2 (HepG-2 [3]): 5.53%
fold increase of cells in G2-M phase vs control, HCT-116 (HCT-116 [4]): 1.49 fold
fold increase of cells in pre-G1 phase vs control, HCT-116 (HCT-116 [4]): 5.37 fold
IC50 (EGFR^T790M): 4.02 ± 0.19 µM
IC50 (MCF-7 [5]; Homo sapiens, MCF7, read-out: IC50 MCF-7): 3.92 ± 0.19 µM
folds more active than erlotinib, MCF-7 (MCF-7 [5]; [8]): 5.55 folds
IC50 (HCT-116 [6]; Homo sapiens, HCT-116, read-out: IC50 HCT-116): 3.32 ± 0.15 µM
folds more active than erlotinib, HCT-116 (HCT-116 [6]; [8]): 5.04 folds
fold increase of cells in G2-M phase vs control, HepG-2 (HepG-2 [7]): 1.61 fold
fold increase of cells in pre-G1 phase vs control, HepG-2 (HepG-2 [7]): 6.76 fold
IC50 (A549; Homo sapiens, A549, read-out: IC50 A549): 2.69 ± 0.09 µM
folds more active than erlotinib, A549 (A549; [8]): 7.18 folds
